“And” between values parts separate entries of the source, which are not always exact repeats. Equal values may be shown once. Where a name gives a salt, the structure may show the parent alone. Read-outs that look alike come from different tables or passages of the source.

Results on 2 compounds are retold here after paper PMC11570809, “Novel N-phenyl-2-(aniline) benzamide hydrochloride salt development for colon cancer therapy” (Frontiers in Pharmacology, 2024).

Data set [1] has as its target T1, Human COX-2 (Homo sapiens, UniProt P35354).
T1 construct: purchased Beyotime S0168
T1 sequence (P35354 18-604): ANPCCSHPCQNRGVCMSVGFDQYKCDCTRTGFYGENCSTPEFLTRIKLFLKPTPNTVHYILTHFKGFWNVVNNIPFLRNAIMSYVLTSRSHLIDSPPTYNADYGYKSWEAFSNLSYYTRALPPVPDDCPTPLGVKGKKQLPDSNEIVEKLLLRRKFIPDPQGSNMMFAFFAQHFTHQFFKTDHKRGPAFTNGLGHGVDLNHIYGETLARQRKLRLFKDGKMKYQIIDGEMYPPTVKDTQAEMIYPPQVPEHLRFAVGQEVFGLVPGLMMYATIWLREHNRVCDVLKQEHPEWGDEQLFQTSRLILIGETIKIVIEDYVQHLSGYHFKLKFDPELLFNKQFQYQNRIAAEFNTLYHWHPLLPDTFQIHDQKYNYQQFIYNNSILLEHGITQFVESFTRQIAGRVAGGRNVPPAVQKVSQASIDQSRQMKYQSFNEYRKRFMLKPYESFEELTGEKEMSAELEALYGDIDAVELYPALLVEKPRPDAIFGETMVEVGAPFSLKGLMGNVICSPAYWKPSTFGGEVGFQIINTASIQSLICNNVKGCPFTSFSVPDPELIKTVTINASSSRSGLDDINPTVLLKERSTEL
Put plainly: COX-2 inhibition assay (Human COX-2 Inhibitor Screening Kit). Type of data set: biochemical. How it is done:
The COX-2 inhibitory activity of all the synthesized compounds was measured by the Human COX-2 Inhibitor Screening Kit (Beyotime, catalog no. S0168), and the specific steps were followed strictly according to the instructions. The lead compound N53 was also tested for reference purposes. The absorbance was measured at an excitation wavelength of 560 nm and an emission wavelength of 590 nm in a microplate reader. Each experimental condition was performed in triplicate and averaged.

Data set [2] deals with HepG2. Put plainly: MTT anti-proliferation assay, HepG2. Type of data set: cell-based, human. Particulars: read-out: IC50 ± SD HepG2. For orientation: Tetrazolium dyes change colour on reduction, which living cells bring about.
The subject of data set [3] is RKO. Kind of data set: MTT anti-proliferation assay, RKO. Type of data set: cell-based, human. Particulars: 72 h, read-out: IC50 ± SD RKO. The procedure:
The anti-proliferation activities of synthesized compounds to colon cancer cell lines were measured by the MTT (3-[4,5-dimethyl-2-thiazolyl]-2,5-diphenyl-2H-tet razolium bromide) assay. First, the cell suspension was prepared by trypsin and the corresponding medium, cells were diluted to 5 × 10^5 cells/mL, and 96-well plates were added 200 μL per well. The plates were maintained at 37°C in a humidified atmosphere containing 5% CO2 overnight. Then compounds at gradient concentrations were added to cells in the logarithmic phase to make the final concentration at 0.5, 1, 2, 4, 8, 16, and 32 μM. The cells were treated with tested compounds for 72 h, and the growth curve assay was tested in 24 h. When the time was up, 20 μL of MTT solution (5 mg/mL in PBS) was added into each well to incubate for 4 h at 37°C. Then the supernatant liquid was removed, 150 μL DMSO was added into every well to dissolve formazan crystals and read the absorbance at 570 nm by Spark microplate spectrophotometer (Tecan, Swiss). The IC50 values were analyzed by IBM SPASS Statistics 25.0 software. The data are all derived from three parallel experiments (n = 3) and expressed as mean ± SD.

Data set [4] has as its system RKO cells. Kind of data set: Plane colony assay, RKO. Type of data set: cell-based, human. To be noted: RKO, 1, 2 and 4 µM. How it is done: In 6-well plates, HT29 cells and RKO cells (1 × 10^3 cells/well) were inoculated and maintained overnight. Then treated with N53 and N53·HCl at different concentrations for 24 h and with normal culture-medium for 7 days respectively. After that, removed supernatant and fixed by 4% paraformaldehyde for 15 min. Then fixed cells were stained with 1% crystal violet dye for 15 min and rinsed with water. Finally, colonies were counted according to rules that nonoverlapping groups of at least 50 cells. The data are all derived from three parallel experiments (n = 3) and expressed as mean ± SD.

The nature of data set [5]: Oral pharmacokinetics study. Type of data set: in vivo, SD rats. Particulars: for T1/2 / Tmax: n = 3. How it is done:
Six 250–280 g male SD rats, which are 8-week-old, were randomly divided into 2 groups (n = 3). The dose selection is based on previously described ([Xiaoling Hu et al., 2022]). 100 mg/kg N53 and N53·HCl dissolved in normal saline containing 2.5% polyoxyethylene castor oil and 2.5% DMSO was administrated by oral medications. The first group was given 100 mg/kg of N53 by intragastric administration, and the second group was given 100 mg/kg of N53·HCl by intragastric administration. For intragastric administration, blood samples were collected from the orbits of the rats in heparin sodium tubes at 0, 5, 15, 30 min, 1, 2, 4, 6, 8, 12, and 24 h after dosing; The above blood samples were centrifuged (2,500 rpm, 6 min, 4°C) to plasma, and stored at −80°C to be analyzed by LC-MS/MS. Firstly, 5 times methanol was added to each serum sample and mixed well. After centrifugation at 1,600 rpm for 10 min at 4°C, the samples were filtered through a 0.22 μm filter for analysis. The HPLC analysis was carried out on an ODS-C18 column (4.6 mm × 50 mm, 3 μm). The HPLC mobile phases consisted of water (0.1% formic acid) (A) and 95% acetonitrile (including 0.1% formic acid) (B), separated by gradient chromatography at 0.4 mL/min. Chromatographic conditions: mobile phase: 0–0.5 min, acetonitrile: H2O = 10:90; 0.5–0.6 min acetonitrile: H2O = 100:0, 0.6–2.4 min, acetonitrile: H2O = 100:0, 2.4–2.5 min acetonitrile: H2O = 10:90; wavelength: 254 nm; column temperature: 25°C. The column eluate was directly introduced into ES-API. The MS/MS instrument was conducted using the electrospray ionization (ESI) source with a positive ion detection mode. The analytes (N53·HCl) and IS (Propranolol) were all detected by multiple reactions monitoring (MRM) scan mode of transitions from precursor ions to product ions at m/z 435.2→192.1 for N53·HCl (retention time: 1.54 min), m/z 260.0→116.0 for IS (retention time: 1.54 min). The optimized instrument parameters are as follows: declustering potentials (DP) at 51 V for N53·HCl, 78 V for IS; entrance potentials (EP) at 8V; collision energies (CE) at 34 V for N53·HCl, 25 V for IS; collision cell exit potentials (CXP) at 7 V; curtain gas (CUR) at a pressure of 10 psi; turbo spray voltage at 5,500 V. Data acquisition of LC-MS/MS was performed with AnalystTM 1.5 software package (Applied Biosystems, MA, United States). The pharmacokinetic parameters for N53 and N53·HCl were calculated by using the non-compartment method (statistical moment) in DAS 2.0 software (Pharmacokinetics Institute of China).

The mark [6] stands for this setting: 100 mg/kg p.o., n = 3, mean ± SD.

Regarding `Cc1c(Cl)cccc1Nc1ccccc1C(=O)Nc1ccc(N2CCN(C)CC2)cc1` [N53·HCl, 4-(4-(2-((3-chloro-2-methylphenyl)amino)ben-zamido)phenyl)-1-methylpiperazin-1-ium], the “Inhibition rate (%) of COX-2 (2 μM)” value in data set [1] worked out at 32.5 ± 7.8%. Besides, the half-inhibitory concentration (IC50) in data set [2] (Homo sapiens, HepG2, 72 h) came to 4.12 ± 0.39 µM. Also, in data set [3] (Homo sapiens, RKO), the IC50 was 7.99 ± 0.85 µM. In addition, the “Number of cell clones formed” value in data set [4] is “decreased significantly and dose-dependently”. In addition, in data set [5] (100 mg/kg p.o.), the “Cmax (peak plasma concentration)” value is 680.0 µg/mL, the T1/2 is given as 22.3 ± 9.9 h and the Tmax is given as 6.7 ± 4.6 h. Further, in data set [5] (setting [6]), the “AUC0(-∞)” value was 21200 ± 8000 ng·h/mL, the CLz is 85 ± 26.7 mL/min/kg, the Cmax was found to be 680 ± 180 µg/mL and the Vz/F came to 149.7 ± 11.6 L/kg. Also, in data set [5] (male, SD, rat, plasma, po, 100 mg/kg, 100 mg/kg p.o., read-out: Tmax), the time to peak (Tmax) amounted to 6.67 h. For the same compound, in data set [5] (oral), the “AUC0–∞ increase relative to N53” value amounted to 3 fold and the “Cmax increase relative to N53” value turned out to be 2 fold.
Regarding `Cc1c(Cl)cccc1Nc1ccccc1C(=O)Nc1ccc(N2CCN(C)CC2)cc1` [Compound N53, 2-((3-chloro-2-methylphenyl)amino)-N-(4-(4-methylp-iperazin-1-yl)phenyl)benzamide], in data set [1], the “Inhibition rate (%) of COX-2 (2 μM)” value is reported as 3.6 ± 1.1%. The IC50 in data set [2] (72 h) was found to be 2.31 ± 0.09 µM. Also, in data set [3], the half-maximal inhibitory concentration (IC50) amounted to 6.29 ± 0.54 µM. In addition, in data set [5] (100 mg/kg p.o.), the “Cmax (peak plasma concentration)” value is 333.7 µg/mL and 333 µg/mL; the T1/2 was 10.78 h and 10.8 ± 0.7 h; the Tmax came out at 6.0 ± 2.0 h. In addition, in data set [5] (setting [6]), the “AUC0(-∞)” value turned out to be 7200 ± 700 ng·h/mL, the CLz turned out to be 232 ± 21.7 mL/min/kg and the maximum concentration (Cmax) was found to be 330 ± 40 µg/mL. For the same compound, in data set [5] (male, SD, rat, plasma, po, 100 mg/kg, 100 mg/kg p.o., n = 3, mean ± SD, read-out: Vz/F), the Vd/F is 217 ± 33.3 L/kg.

The term IC50 denotes the concentration at which inhibition is half-maximal. For orientation: Tmax means the time from dosing to the highest level. One may read the Cmax as the peak of the concentration-time curve.
